Data: patent US9700552B2, “Pharmaceutical compositions for treatment of addiction” (priority 2008, dated 2017)
Where two headings read alike, the source gives them in different places.

Legend:
[1] = in vivo; cited from earlier work
[2] = Solubility of naltrexone in adhesive matrix; type: physicochemical
From the text: […]. Adhesive matrices having such Hildebrand solubility parameters are typically, although not necessarily polyacrylate copolymers. […].

[3] = in vivo, cited from earlier work

| Compound | mean elimination half-life [1] | solubility of naltrexone in adhesive ([2]; in DURO-TAK® 87-900A) | solubility of naltrexone in adhesive ([2]; in DURO-TAK® 87-2510) | safety statement [3] | safety statement ([3]; listed as Naltrexone) |
| --- | --- | --- | --- | --- | --- |
| Oc1ccc2c3c1O[C@H]1[C@H](O)CC[C@@]4(O)[C@@H](C2)N(CC2CC2)CC[C@]314 [6-β-naltrexol] | thirteen |  |  |  |  |
| O=C1CC[C@@]2(O)[C@H]3Cc4ccc(O)c5c4[C@@]2(CCN3CC2CC2)[C@H]1O5 [naltrexone] |  | 5.851 g/100 g of polymer | 3.067 g/100 g of polymer | major liver toxin | very few and minor side effects |
